Assay results published in ChEMBL document CHEMBL5096150, “Development and Therapeutic Potential of NUAKs Inhibitors” (J Med Chem, 2021).
pIC50, pKd: −log10 of the molar value. Values belong to the molecule of their own block, whether it stands above or below them.

How the values were obtained:
[1] = target: T1, NUAK family SNF1-like kinase 1 (Homo sapiens, UniProt O60285); experiment: Inhibition of NUAK1 (unknown origin)
T1 sequence (O60285 whole entry): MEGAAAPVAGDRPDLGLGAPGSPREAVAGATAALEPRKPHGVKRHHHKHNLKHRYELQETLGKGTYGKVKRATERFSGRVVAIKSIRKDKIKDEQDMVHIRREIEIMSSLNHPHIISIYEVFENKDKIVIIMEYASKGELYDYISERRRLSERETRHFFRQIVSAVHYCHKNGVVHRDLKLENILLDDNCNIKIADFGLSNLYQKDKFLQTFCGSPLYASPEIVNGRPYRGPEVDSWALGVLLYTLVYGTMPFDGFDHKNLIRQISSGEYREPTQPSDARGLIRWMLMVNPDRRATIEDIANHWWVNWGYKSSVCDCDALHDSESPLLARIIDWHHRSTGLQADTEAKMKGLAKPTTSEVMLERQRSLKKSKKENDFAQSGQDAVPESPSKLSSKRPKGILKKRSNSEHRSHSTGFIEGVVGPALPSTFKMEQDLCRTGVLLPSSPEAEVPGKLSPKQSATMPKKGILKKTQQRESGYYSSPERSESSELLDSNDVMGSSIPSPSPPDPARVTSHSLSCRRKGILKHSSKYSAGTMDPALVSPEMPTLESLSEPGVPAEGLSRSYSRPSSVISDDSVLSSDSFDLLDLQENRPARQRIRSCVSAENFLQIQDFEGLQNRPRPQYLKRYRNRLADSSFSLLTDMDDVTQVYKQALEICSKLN

[2] = target: T1, NUAK family SNF1-like kinase 1; experiment: Inhibition of N-terminal GST-tagged wild type human NUAK1 expressed in Escherichia coli DH5alpha incubated for 30 mins in presence of gamma-[32P]ATP by cerenkov counting analysis
[3] = target: Cyclin-dependent kinase 4 (Homo sapiens) (UniProt P11802); experiment: Inhibition of CDK4 (unknown origin)
[4] = target: Proto-oncogene tyrosine-protein kinase receptor Ret (Homo sapiens, UniProt P07949); experiment: Inhibition of RET (unknown origin)
[5] = target: T1, NUAK family SNF1-like kinase 1; experiment: Inhibition of NUAK1 in HEK293 cells assessed as effect on MYPT1 phosphorylation at Ser445 incubated for 3 mins by immunoblotting analysis; format: cell-based
Aurora kinase C = target: T2, Aurora kinase C (Homo sapiens, UniProt Q9UQB9); experiment: Inhibition of Aurora C (unknown origin)
T2 sequence (Q9UQB9 whole entry): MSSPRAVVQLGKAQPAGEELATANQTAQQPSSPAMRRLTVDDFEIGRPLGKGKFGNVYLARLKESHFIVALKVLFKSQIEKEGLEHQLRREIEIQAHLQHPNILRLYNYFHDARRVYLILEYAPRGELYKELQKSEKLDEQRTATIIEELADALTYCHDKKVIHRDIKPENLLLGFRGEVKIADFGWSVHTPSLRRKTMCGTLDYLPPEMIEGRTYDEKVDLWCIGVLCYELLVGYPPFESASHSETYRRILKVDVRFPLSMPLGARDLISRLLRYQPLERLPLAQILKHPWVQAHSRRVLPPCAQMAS

Aurora kinase B = Aurora kinase B (Homo sapiens, UniProt Q96GD4); experiment: Inhibition of Aurora B (unknown origin)
[6] = target: T3, NUAK family SNF1-like kinase 1 (Homo sapiens) (UniProt O60285); experiment: Inhibition of NUAK1 (unknown origin) at 1 uM relative to control
T3 sequence (whole entry): T1 sequence (O60285 whole entry)

[7] = target: T3, NUAK family SNF1-like kinase 1 (Homo sapiens); experiment: Inhibition of NUAK1 (unknown origin) at 0.01 uM relative to control
[8] = target: T3, NUAK family SNF1-like kinase 1 (Homo sapiens); experiment: Inhibition of NUAK1 (unknown origin) at 0.10 uM relative to control; details: dose 0.1 µM
[9] = target: T4, Insulin-like growth factor 1 receptor (Homo sapiens, UniProt P08069); experiment: Inhibition of human IGF1R expressed in mouse IGF1R knockout MEF cells; format: cell-based
Insulin receptor [10] = target: T5, Insulin receptor (Homo sapiens, UniProt P06213); experiment: Inhibition of human InsR expressed in mouse IGF1R knockout MEF cells; format: cell-based
[11] = target: T4, Insulin-like growth factor 1 receptor; experiment: Binding affinity to human IGF1R expressed in mouse IGF1R knockout MEF cells assessed as dissociation constant; format: cell-based
Insulin receptor [12] = target: T5, Insulin receptor; experiment: Binding affinity to human InsR expressed in mouse IGF1R knockout MEF cells assessed as dissociation constant; format: cell-based
[13] = Inhibition of N-terminal GST-tagged human NUAK1 A195T mutant expressed in Escherichia coli DH5alpha incubated for 30 mins in presence of gamma-[32P]ATP by cerenkov counting analysis
[14] = target: T6, NUAK family SNF1-like kinase 2 (Homo sapiens, UniProt Q9H093); experiment: Inhibition of NUAK2 (unknown origin)
T6 sequence (Q9H093 whole entry): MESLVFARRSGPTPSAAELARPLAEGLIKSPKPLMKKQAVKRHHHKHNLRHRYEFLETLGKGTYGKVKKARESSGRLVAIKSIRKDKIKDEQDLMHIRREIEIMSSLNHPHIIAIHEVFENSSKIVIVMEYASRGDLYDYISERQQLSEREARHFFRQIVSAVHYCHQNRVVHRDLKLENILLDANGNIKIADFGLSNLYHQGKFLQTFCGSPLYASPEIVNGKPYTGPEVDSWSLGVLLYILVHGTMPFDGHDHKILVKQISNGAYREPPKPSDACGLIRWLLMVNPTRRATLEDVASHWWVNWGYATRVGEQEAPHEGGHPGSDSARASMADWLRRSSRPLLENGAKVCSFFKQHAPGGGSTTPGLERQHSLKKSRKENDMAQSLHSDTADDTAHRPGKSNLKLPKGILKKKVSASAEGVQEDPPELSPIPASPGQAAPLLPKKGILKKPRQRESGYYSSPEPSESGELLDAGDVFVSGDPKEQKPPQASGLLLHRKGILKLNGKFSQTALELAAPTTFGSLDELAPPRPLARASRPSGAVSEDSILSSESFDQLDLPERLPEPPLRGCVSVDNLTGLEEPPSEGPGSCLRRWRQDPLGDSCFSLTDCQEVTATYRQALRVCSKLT

T5 sequence (P06213 28-758 limits assumed): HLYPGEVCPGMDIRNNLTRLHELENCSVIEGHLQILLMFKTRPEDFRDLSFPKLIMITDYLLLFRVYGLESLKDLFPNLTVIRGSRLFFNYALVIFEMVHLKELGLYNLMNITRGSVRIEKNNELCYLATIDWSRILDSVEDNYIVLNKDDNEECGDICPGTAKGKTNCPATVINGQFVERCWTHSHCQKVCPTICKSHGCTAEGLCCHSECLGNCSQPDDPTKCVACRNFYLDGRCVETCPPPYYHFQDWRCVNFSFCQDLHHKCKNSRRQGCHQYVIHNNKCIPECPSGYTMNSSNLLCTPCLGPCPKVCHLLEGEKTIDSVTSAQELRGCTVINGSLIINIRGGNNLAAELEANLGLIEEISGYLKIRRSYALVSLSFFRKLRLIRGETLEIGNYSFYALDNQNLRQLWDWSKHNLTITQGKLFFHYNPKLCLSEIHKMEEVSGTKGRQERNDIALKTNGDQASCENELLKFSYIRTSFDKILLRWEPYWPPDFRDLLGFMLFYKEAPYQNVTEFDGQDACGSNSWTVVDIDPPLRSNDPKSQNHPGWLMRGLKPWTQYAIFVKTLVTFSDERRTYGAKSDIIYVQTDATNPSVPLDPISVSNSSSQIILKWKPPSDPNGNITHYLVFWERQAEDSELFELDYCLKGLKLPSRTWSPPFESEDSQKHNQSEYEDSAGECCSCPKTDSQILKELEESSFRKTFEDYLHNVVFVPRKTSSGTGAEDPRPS
T5 sequence (P06213 763-1382 limits assumed): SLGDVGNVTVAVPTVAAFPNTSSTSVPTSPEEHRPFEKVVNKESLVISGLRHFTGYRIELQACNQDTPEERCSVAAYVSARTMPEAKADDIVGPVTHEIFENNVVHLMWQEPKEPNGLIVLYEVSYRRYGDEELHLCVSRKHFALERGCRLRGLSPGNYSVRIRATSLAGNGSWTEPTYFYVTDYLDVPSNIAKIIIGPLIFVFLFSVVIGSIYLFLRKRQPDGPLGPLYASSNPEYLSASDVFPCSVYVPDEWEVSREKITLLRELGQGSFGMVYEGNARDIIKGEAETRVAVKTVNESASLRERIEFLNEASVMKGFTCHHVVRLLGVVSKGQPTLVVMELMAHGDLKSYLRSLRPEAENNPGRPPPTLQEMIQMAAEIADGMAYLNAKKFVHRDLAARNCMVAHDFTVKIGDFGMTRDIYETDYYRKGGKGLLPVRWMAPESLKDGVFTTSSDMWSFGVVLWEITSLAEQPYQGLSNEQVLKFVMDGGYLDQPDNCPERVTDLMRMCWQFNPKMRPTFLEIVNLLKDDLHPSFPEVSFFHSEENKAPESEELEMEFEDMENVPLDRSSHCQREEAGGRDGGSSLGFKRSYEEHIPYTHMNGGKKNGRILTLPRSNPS
T4 sequence (P08069 31-736 limits assumed): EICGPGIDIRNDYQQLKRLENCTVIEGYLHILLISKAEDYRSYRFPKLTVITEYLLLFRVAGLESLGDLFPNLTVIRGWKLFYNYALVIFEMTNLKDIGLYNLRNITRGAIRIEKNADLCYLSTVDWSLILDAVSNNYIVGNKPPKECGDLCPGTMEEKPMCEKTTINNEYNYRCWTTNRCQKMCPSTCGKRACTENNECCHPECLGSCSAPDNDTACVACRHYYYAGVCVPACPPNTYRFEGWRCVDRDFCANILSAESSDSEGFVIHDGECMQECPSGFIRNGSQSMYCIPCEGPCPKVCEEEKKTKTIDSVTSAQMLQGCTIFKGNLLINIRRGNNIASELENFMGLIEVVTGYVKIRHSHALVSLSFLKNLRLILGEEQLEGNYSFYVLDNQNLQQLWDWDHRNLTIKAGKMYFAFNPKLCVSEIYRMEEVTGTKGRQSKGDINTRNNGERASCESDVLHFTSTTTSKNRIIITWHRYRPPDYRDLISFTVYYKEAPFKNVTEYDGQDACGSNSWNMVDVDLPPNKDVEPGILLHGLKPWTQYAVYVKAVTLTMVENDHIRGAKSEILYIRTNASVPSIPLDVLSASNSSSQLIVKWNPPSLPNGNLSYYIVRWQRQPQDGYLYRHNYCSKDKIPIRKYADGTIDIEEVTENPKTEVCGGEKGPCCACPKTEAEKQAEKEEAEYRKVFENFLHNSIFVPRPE
T4 sequence (P08069 741-1367 limits assumed): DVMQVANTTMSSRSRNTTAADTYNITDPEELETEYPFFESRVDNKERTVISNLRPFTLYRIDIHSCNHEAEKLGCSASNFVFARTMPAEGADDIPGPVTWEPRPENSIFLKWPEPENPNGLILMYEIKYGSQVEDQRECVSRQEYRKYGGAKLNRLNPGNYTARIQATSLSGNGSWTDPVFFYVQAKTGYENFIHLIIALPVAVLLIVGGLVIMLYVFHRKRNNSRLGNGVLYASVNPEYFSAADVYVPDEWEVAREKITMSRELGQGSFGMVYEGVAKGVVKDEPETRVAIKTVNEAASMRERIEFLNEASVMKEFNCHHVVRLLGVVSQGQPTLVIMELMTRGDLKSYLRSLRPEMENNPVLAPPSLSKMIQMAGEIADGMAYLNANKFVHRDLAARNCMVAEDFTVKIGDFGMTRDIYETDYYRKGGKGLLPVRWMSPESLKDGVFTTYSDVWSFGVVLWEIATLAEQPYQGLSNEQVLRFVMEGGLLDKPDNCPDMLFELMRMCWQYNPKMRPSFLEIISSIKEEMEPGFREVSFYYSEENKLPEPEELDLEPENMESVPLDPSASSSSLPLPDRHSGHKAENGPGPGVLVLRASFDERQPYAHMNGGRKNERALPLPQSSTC
Sequence of Proto-oncogene tyrosine-protein kinase receptor Ret (P07949 whole entry): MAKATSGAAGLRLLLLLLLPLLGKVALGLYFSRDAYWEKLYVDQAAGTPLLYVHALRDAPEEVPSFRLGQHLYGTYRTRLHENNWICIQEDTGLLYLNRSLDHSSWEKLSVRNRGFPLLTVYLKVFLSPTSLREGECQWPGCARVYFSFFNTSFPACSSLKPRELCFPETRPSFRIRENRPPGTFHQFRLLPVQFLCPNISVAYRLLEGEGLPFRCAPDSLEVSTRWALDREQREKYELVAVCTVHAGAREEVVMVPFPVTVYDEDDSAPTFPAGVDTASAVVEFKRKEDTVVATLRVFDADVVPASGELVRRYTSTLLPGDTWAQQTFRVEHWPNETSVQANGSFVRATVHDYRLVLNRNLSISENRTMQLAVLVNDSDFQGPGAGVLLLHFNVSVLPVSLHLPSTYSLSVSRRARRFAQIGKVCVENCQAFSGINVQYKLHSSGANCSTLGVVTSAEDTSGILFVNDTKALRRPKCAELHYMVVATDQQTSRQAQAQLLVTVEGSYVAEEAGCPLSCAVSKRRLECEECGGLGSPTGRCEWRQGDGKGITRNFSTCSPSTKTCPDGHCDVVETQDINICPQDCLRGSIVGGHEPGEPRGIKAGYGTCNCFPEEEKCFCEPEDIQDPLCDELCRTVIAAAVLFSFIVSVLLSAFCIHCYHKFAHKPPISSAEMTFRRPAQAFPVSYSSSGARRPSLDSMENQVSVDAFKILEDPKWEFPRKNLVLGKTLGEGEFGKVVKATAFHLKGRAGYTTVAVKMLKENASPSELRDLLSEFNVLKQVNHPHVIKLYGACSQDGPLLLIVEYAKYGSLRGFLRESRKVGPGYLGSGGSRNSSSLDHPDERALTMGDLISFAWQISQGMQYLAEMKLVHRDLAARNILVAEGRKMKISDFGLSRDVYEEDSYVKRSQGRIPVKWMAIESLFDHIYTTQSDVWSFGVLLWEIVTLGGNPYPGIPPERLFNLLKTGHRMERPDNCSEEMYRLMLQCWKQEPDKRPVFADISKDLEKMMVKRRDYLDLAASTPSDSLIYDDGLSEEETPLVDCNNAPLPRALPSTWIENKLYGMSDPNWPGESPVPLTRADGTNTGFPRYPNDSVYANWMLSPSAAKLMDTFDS
Sequence of Aurora kinase B (Q96GD4 whole entry): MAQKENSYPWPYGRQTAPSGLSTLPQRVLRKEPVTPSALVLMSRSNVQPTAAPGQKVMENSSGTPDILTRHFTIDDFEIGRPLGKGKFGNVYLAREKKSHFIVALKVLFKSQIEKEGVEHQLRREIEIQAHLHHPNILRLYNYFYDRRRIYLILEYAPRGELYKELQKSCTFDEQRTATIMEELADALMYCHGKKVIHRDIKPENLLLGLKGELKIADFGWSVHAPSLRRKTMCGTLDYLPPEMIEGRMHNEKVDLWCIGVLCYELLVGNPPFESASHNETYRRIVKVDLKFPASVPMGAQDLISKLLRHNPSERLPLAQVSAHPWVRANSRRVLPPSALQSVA
Sequence of Cyclin-dependent kinase 4 (Homo sapiens) (P11802 whole entry): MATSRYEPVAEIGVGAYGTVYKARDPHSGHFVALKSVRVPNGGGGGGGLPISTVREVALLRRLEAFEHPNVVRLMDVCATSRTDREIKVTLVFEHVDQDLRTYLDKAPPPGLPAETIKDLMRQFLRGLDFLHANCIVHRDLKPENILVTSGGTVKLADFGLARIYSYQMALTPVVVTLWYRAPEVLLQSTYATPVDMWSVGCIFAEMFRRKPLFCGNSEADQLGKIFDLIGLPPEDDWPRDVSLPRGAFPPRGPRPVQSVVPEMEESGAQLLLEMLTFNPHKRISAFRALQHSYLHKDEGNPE

SMILES: COc1cccc(OCCCN)c1-c1cc(Nc2cnc(C#N)cn2)n[nH]1 [PREXASERTIB]
pIC50 [1]: 7.19

SMILES: C=CC(=O)Nc1cccc(Oc2nc(Nc3ccc(N4CCN(C)CC4)cc3)nc3[nH]cnc23)c1
pIC50 [2]: 7.48

SMILES: Cc1ccc2c(c1)C(=O)N(C)c1cnc(Nc3cnn(C4CCNCC4)c3)nc1N2C
pIC50 [2]: 8.15

SMILES: CN1C(=O)c2cc3ccccc3cc2N(C)c2nc(Nc3cnn(C4CCNCC4)c3)ncc21
pIC50 [5]: 5.00 | pIC50 (Aurora kinase C): 6.92 | pIC50 (Aurora kinase B): 7.27

SMILES: O=C(NCCCNc1nc(Nc2cccc(NC(=O)N3CCCC3)c2)ncc1I)c1cccs1 [BX-795]
pIC50 [1]: 8.30

SMILES: Cc1cc(Nc2nc(NC(C)c3ccc(F)cc3)c(C#N)cc2F)n[nH]1 (stereo not drawn)
inhibition [6]: 3% | inhibition [7]: 35% | inhibition [8]: 6%

SMILES: Fc1ccc(Cn2cnc3cc(Cl)c(Nc4cc(C5CC5)[nH]n4)nc32)cc1
pIC50 [1]: 7.46

SMILES: COCCN1CCN(CCn2ccc(Nc3ncc4c(n3)C(C)Cc3nn(C)c(-c5ccccc5)c3-4)n2)CC1 (stereo not drawn)
pIC50 [1]: 6.39 | pIC50 [9]: 9.00 | pIC50 (Insulin receptor [10]): 9.00 | pKd [11]: 8.05 | pKd (Insulin receptor [12]): 7.92

SMILES: Cc1ccc2c(c1)C(=O)N(C)c1cnc(Nc3ccc4c(c3)NC(=O)CC4)nc1N2C
pIC50 [2]: 7.82 | pIC50 [13]: 5.70

SMILES: O=C(NCCCNc1nc(Nc2cccc(CN3CCOCC3)c2)ncc1C1CC1)C1CCC1
pIC50 [14]: 5.59

SMILES: Cc1nc(Nc2cnn(C3CCNCC3)c2)nc2c1N(C)C(=O)c1ccccc1N2C
pIC50 [2]: 7.77

SMILES: Cc1cc(Nc2ncc3c(n2)N(C)c2ccccc2C(=O)N3C)ccc1C(=O)N1CCN(C)CC1
pIC50 [2]: 8.22

Further lines, results first:

pIC50 [1]: > 8.00
SMILES: C[C@@H](O)[C@@H](C)Oc1nc(Nc2ccc([S@](=N)(=O)C3CC3)cc2)ncc1C(F)(F)F [RONICICLIB]

pIC50 [2]: 7.60
SMILES: C=CC(=O)Nc1cccc(Oc2nc(Nc3ccc(N4CCN(C)CC4)cc3OC)ncc2Cl)c1

pIC50 [3]: 8.41 | pIC50 [4]: 8.04
SMILES: CN1CCN(c2ccc(Nc3ncc4cc(C#N)c(=O)n(C5CCCC5)c4n3)cc2)CC1 [NARAZACICLIB]

pIC50 [2]: 7.17
SMILES: CC(C)(C)NS(=O)(=O)c1cccc(Nc2nc(Nc3cnn(C4CCNCC4)c3)ncc2Cl)c1

pIC50 [2]: 8.82
SMILES: CCC(=O)Nc1cccc(Oc2nc(Nc3ccc(N4CCN(C)CC4)cc3OC)ncc2Cl)c1

pIC50 [14]: 6.90
SMILES: CCCC(=O)Nc1cccc(Oc2nc(Nc3ccc(N4CCN(C)CC4)cc3OC)ncc2I)c1
